Read-outs that look alike come from different tables or passages of the source.

The target in assay [1] is T1, recombinant human serotonin receptor 5-HT2A (Homo sapiens, UniProt P28223).
T1 construct: expressed in transfected cells; method B: loaded with Ca2+ dye
Kind of assay: 5-HT2A antagonist Ca2+ assay in CHO-K1 cells (method A aequorin luminescence / method B FLIPR fluorescence). To be noted: antagonist mode vs EC80 of reference agonist, method A or B. Format: cell-based. The essentials:
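IC50 was obtained by nonlinear regression of percent inhibition of the EC80 agonist Ca2+ response in CHO-K1 cells stably expressing human 5-HT2A. The readout was aequorin luminescence with agonist injected 15 min after compound (A), or Ca2+-dye fluorescence on FLIPR with serotonin as agonist (B).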

Assay [2] concerns the target human sodium channel NaV1.2 (Homo sapiens, UniProt Q99250). Kind of assay: NaV1.2 inhibition, automated patch-clamp (Q-Patch HTX), slow inactivated state (state C). To be noted: hNaV1.2 CHO cells, slow inactivated state; for IC50: read-out: NaV1.2 IC50; for inhibition at 10 µM: 10 μM compound, read-out: NaV1.2 (% inh), 10 μM; for inhibition at 1 µM: 1 μM compound, read-out: NaV1.2 (% inh), 1 μM. Format: cell-based. The source says: In vitro method for NaV1.2 inhibition assays: The methods utilized to assess the inhibitory activity of compounds on NaV1.2 were based on the methods described by Liu et al. [Liu Y, Beck E J, & Flores C M (2011): Validation of a patch clamp screening protocol that simultaneously measures compound activity in multiple states of the voltage-gated sodium channel Nav1.2. Assay Drug Development Technology 9, 628-634]. For these electrophysiology assays, a cell line (Chinese Hamster Ovarian K-1 cells (CHO K-1)) engineered to stably express human sodium channel NaV1.2 was purchased from Millipore Corporation (catalog no. CYL3023). The electrophysiology measurements were performed using automated patch-clamp methods on a Q-Patch HTX instrument by scientists at Evotec AG under contract with Sunovion.
The solutions utilized for the Qpatch experiments were similar buffered solutions to those described by Liu et al. [Liu Y, Beck E J, & Flores C M (2011)]. The extracellular solution contained 140 millimolar sodium chloride, 4 millimolar potassium chloride, 2 millimolar calcium chloride, 1 millimolar magnesium chloride, 10 millimolar 4-(2-hydroxyethyl)-1-piperazineethanesulfonic acid (HEPES), and 10 millimolar glucose (pH adjusted to 7.4 with sodium hydroxide). The intracellular solution contained 100 millimolar cesium fluoride, 45 millimolar cesium chloride, 10 millimolar HEPES, 5 millimolar ethylene glycol tetraacetic acid (EGTA), and 5 millimolar glucose (pH adjusted to 7.2 with cesium hydroxide).
The biophysical experiments of Lui et al. [Liu Y, Beck E J, & Flores C M (2011)] were replicated to assess the fast, slow and total inactivation characteristics of the human Nav1.2 channel
Based upon results from studies of the fast, slow and total inactivation characteristics of the human Nav1.2 channel, a voltage protocol involving a sequence of consecutive pulses of current was used to measure channel activity in several states [Liu Y, Beck E J, & Flores C M (2011)]. The monolayer of CHO K-1 cells stably expressing human sodium channel NaV1.2 (hNaV1.2 CHO cells) was maintained in the Qpatch instrument at a potential of −100 millivolts (mV) except when the voltage protocol was being executed. The first pulse in the protocol involved a 100 millisecond depolarization to 0 mV to enable measurement of channel availability in the closed state (state A). The potential was then maintained at −90 mV for 15 milliseconds, followed by a five millisecond period of depolarization to 0 mV to enable measurement of channel availability after partial recovery from fast inactivation (state B). Next, the potential was maintained at −90 mV for 300 milliseconds, followed by ten seconds at −50 mV, 15 milliseconds at −90 mV, and finally another five millisecond period of depolarization to 0 mV to enable measurement of channel availability after additional recovery from fast inactivation and significant entry into the slow inactivated state (state C). Finally, after an additional 300 millisecond period at −90 mV, another five millisecond period of depolarization to 0 mV was employed to enable measurement of channel availability after partial recovery from the slow inactivated state (state D). Measurements of activity at state C were used to assess the activity of the NaV1.2 channel in the slow inactivated state. Comparison of activity after addition of test compounds or reference compounds with activity after addition of vehicle only provided a measure of percent remaining activity from which percent inhibition was calculated. […] A slight modification of this protocol was utilized to provide measurements as a function of compound concentration, which enabled IC50 values to be determined. IC50 values were calculated by non-linear least squares regression of the data (percent inhibition of ion channel NaV1.2 activity in the slow inactivated state) onto equation (1): % inhibition=100%/(1+(IC50/[compound]) equation (1)
J Pharmacol Exp Ther. 2008 July; 326(1):89-99.].
For orientation: Patch clamp records ionic current or voltage across a cell membrane.

Sequence of human sodium channel NaV1.2 (Q99250 whole entry): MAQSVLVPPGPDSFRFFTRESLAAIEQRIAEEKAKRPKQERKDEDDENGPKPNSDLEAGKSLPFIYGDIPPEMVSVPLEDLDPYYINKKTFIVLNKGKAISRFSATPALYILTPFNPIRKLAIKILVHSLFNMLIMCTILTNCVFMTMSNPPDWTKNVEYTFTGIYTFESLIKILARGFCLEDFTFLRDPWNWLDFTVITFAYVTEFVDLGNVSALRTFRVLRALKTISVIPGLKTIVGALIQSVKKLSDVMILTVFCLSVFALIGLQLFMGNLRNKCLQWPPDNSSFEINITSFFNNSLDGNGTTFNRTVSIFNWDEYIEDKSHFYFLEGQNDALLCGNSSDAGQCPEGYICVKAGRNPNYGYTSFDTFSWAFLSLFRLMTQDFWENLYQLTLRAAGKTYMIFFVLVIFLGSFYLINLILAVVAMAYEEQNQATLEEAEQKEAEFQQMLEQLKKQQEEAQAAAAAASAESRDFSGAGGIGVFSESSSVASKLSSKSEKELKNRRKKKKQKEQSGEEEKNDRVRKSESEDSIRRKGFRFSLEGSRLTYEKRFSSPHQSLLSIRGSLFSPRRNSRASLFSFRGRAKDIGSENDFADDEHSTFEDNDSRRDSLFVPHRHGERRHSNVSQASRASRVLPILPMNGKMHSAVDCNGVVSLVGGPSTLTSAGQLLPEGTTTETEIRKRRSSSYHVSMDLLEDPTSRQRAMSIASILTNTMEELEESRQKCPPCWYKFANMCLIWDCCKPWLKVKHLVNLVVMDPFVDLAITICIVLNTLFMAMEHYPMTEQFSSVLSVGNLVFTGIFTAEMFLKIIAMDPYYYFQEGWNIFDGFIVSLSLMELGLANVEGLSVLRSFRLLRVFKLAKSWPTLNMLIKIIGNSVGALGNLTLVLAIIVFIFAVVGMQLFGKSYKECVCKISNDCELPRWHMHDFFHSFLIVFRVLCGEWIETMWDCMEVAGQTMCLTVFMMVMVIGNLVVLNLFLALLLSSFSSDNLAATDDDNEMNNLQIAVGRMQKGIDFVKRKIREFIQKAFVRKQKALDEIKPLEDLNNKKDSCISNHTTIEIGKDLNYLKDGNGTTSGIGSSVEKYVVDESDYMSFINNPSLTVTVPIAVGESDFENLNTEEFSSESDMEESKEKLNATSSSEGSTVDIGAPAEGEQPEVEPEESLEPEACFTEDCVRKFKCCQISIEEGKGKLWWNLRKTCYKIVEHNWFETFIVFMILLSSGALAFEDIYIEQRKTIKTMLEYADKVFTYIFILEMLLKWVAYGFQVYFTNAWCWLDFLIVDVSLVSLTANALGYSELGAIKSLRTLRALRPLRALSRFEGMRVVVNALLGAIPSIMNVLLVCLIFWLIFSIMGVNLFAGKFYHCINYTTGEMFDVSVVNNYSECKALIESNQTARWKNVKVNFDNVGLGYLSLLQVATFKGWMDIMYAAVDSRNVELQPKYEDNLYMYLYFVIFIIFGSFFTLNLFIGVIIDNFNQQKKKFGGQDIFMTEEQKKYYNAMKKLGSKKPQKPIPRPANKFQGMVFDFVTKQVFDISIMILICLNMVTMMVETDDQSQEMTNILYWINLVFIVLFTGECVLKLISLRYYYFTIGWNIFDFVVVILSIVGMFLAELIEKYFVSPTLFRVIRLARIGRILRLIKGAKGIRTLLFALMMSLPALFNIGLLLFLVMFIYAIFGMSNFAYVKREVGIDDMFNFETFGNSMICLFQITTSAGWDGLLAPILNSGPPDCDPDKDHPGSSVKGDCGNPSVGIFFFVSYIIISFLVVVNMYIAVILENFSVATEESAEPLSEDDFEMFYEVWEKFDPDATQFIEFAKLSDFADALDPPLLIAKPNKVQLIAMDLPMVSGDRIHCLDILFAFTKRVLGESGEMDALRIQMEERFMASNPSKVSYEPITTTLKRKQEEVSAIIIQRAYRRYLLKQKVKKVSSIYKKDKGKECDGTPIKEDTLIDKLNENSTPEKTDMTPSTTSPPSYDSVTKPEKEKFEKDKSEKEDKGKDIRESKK
T1 sequence (P28223 whole entry): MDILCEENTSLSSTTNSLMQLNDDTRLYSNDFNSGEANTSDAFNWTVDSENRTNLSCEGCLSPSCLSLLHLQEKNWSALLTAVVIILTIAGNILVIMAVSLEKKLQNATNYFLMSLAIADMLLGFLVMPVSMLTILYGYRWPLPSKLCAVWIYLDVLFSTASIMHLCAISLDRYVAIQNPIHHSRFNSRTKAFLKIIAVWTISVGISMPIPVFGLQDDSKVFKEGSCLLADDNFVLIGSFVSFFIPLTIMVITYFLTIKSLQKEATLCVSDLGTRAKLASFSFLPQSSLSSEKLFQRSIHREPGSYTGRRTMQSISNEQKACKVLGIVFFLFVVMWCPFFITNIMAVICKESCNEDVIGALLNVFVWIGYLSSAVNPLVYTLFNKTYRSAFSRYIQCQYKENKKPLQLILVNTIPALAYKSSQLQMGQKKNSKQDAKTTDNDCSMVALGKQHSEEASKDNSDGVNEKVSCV

As usually defined, the IC50 is the concentration needed to halve the response being measured. In the case of `O=C1c2ccccc2CCN1CCN1CCC(Oc2cccc(Cl)c2)CC1` [Example 194, 2-(2-(4-(3-chlorophenoxy)piperidin-1-yl)ethyl)-3,4-dihydroisoquinolin-1(2H)-one], the IC50 was found to be 0.11 µM in assay [1] (read-out: 5HT2A IC50) and 230 nM in assay [2].
For `COCc1cccc(OC2CCN(CCN3CCCc4ccccc4C3=O)CC2)c1` [Example 206, 2-(2-(4-(3-(methoxymethyl)phenoxy)piperidin-1-yl)ethyl)-2,3,4,5-tetrahydro-1H-benzo[c]azepin-1-one], the concentration for half-maximal inhibition (IC50) in assay [1] (read-out: 5HT2A IC50) is more than 1.3 µM. In addition, the inhibition at 10 µM in assay [2] was found to be 46%.
Regarding `c1ccc(OC2CCN(CCC3COCc4ccccc43)CC2)cc1` (stereo not drawn) [Example 179, 1-(2-(isochroman-4-yl)ethyl)-4-phenoxypiperidine], the values for the IC50 in assay [1] (read-out: 5HT2A IC50) and in assay [2] were 0.06 µM and 610 nM, respectively.
As for `COc1ccccc1OC1CCN(CC2Cc3ccccc3C2)CC1` [Example 136, 1-((2,3-dihydro-1H-inden-2-yl)methyl)-4-(2-methoxyphenoxy)piperidine], in assay [1] (read-out: 5HT2A IC50), the IC50 is 0.06 µM. Moreover, the inhibition at 1 µM in assay [2] worked out at 50%.
For the compound `COc1ccccc1O[C@H]1CCN(CC2Cc3cccnc3C2)[C@@H](C)C1` (stereo partly drawn) [Example 150, 6-(((2S,4S)-4-(2-methoxyphenoxy)-2-methylpiperidin-1-yl)methyl)-6,7-dihydro-5H-cyclopenta[b]pyridine], in assay [1] (read-out: 5HT2A IC50), the IC50 was found to be 0.72 µM. Moreover, in assay [2], the inhibition at 1 µM is 14%.
On to `O=C1c2ccccc2CCN1CCN1C[C@H]2CC[C@@H](C1)N2c1ccccc1` [Example 297, 2-(2-((1R,5S)-8-phenyl-3,8-diazabicyclo[3.2.1]octan-3-yl)ethyl)-3,4-dihydroisoquinolin-1(2H)-one], for which the IC50 in assay [1] (read-out: 5HT2A IC50) was more than 16.7 µM. The inhibition at 1 µM in assay [2] was -4%.
`OC(COC1CCCCC1)CN1C[C@H]2CC[C@@H](C1)N2c1ccccc1` (stereo partly drawn) [Example 299, 1-(cyclohexyloxy)-3-((1R,5S)-8-phenyl-3,8-diazabicyclo[3.2.1]octan-3-yl)propan-2-ol]: the figures for the IC50 in assay [1] (read-out: 5HT2A IC50) and in assay [2] were 1.72 µM and 3570 nM, respectively.
On to `Fc1ccc(OC2CCN(CC3COc4ccccc43)CC2)cc1` (stereo not drawn) [Example 134, 1-((2,3-dihydrobenzofuran-3-yl)methyl)-4-(4-fluorophenoxy)piperidine], for which the concentration for half-maximal inhibition (IC50) in assay [1] (read-out: 5HT2A IC50) came out at 0.02 µM. In addition, the inhibition at 1 µM in assay [2] is 14%.
On to `CN1CCN(CC2CCc3ccccc32)CC1COc1ccc(F)cc1` (stereo not drawn) [Example 270, 4-((2,3-dihydro-1H-inden-1-yl)methyl)-2-((4-fluorophenoxy)methyl)-1-methylpiperazine], for which the IC50 in assay [1] (read-out: 5HT2A IC50) amounted to 0.11 µM. Also, in assay [2], the inhibition at 1 µM is 56%.
In the case of `O[C@H](COC1CCCCC1)CN1CCC2(CCc3ccccc3O2)CC1` [Example 437, (S)-1-(cyclohexyloxy)-3-(spiro[chromane-2,4′-piperidin]-1′-yl)propan-2-ol], the half-inhibitory concentration (IC50) in assay [1] (read-out: 5HT2A IC50) came to 0.09 µM; in assay [2] it was 3410 nM.
With `c1ccc2c(c1)CCC1(CCN(CCC3Cc4ccncc4C3)CC1)O2` (stereo not drawn) [Example 420, 1′-(2-(6,7-dihydro-5H-cyclopenta[c]pyridin-6-yl)ethyl)spiro[chromane-2,4′-piperidine]], the IC50 in assay [1] (read-out: 5HT2A IC50) stood at 0.25 µM. Besides, in assay [2], the inhibition at 1 µM is 0%.
As to `c1ccc(OC2COC3(CCN(CC4CCc5ccccc54)CC3)C2)cc1` (single isomer, unassigned) [Example 380, 8-((2,3-dihydro-1H-inden-1-yl)methyl)-3-phenoxy-1-oxa-8-azaspiro[4.5]decane], the half-maximal inhibitory concentration (IC50) in assay [1] (read-out: 5HT2A IC50) turned out to be 0.15 µM; in assay [2] it was 120 nM.
For the compound `COc1ccc2c(c1)C(CN1CCC(OCc3ccccc3F)CC1)CC2` (stereo not drawn) [Example 243, 4-((2-fluorobenzyl)oxy)-1-((6-methoxy-2,3-dihydro-1H-inden-1-yl)methyl)piperidine], the half-maximal inhibitory concentration (IC50) in assay [1] (read-out: 5HT2A IC50) came out at 0.36 µM; in assay [2] it was 100 nM.
The corresponding values for `Fc1ccc(O[C@H]2CCCN(CC3CCc4ccccc43)C2)cc1` (stereo partly drawn) [Example 254, (3S)-1-((2,3-dihydro-1H-inden-1-yl)methyl)-3-(4-fluorophenoxy)piperidine] are 0.52 µM and 770 nM.
On to `O=C1c2ccccc2CCN1CCN1CC[C@H](Oc2ccc(F)cc2)C1` [Example 26, (S)-2-(2-(3-(4-fluorophenoxy)pyrrolidin-1-yl)ethyl)-3,4-dihydroisoquinolin-1(2H)-one], for which the concentration for half-maximal inhibition (IC50) in assay [1] (read-out: 5HT2A IC50) is 0.17 µM. In addition, the inhibition at 10 µM in assay [2] turned out to be 70%.
As for `O=C1c2cccnc2CN1CCN1CCC(Oc2ccc(F)cc2)CC1` [Example 186, 6-(2-(4-(4-fluorophenoxy)piperidin-1-yl)ethyl)-6,7-dihydro-5H-pyrrolo[3,4-b]pyridin-5-one], the half-inhibitory concentration (IC50) in assay [1] (read-out: 5HT2A IC50) came out at 0.01 µM. Further, in assay [2], the inhibition at 1 µM is -3%.
As to `O=C1Cc2ccccc2N1CCN1CCC(Oc2ccc(F)cc2)CC1` [Example 185, 1-(2-(4-(4-fluorophenoxy)piperidin-1-yl)ethyl)indolin-2-one], in assay [1] (5HT2A IC50, μM), the IC50 worked out at 0.01 µM. In addition, the inhibition at 1 µM in assay [2] is 19%.
With `COc1ccc2c(c1)C(CN1CC3CCC1CN3c1ccccc1)CC2` (single isomer, unassigned) [Example 310], the 50% inhibitory concentration (IC50) in assay [1] (read-out: 5HT2A IC50) came out at 0.03 µM; in assay [2], 700 nM.
Take `O=C1c2ccccc2CCN1CCN1C[C@@H]2C[C@H](C1)N(c1ccccc1)C2` [Example 329, 2-(2-((1S,5R)-6-phenyl-3,6-diazabicyclo[3.2.1]octan-3-yl)ethyl)-3,4-dihydroisoquinolin-1(2H)-one]: the IC50 in assay [1] (read-out: 5HT2A IC50) is more than 16.7 µM. In addition, in assay [2], the inhibition at 1 µM came to 36%.
Regarding `Cc1ccc(N2CCN(CC(O)COC3CCCCC3)CC2)cc1` (stereo not drawn) [Example 76, 1-(cyclohexyloxy)-3-(4-(p-tolyl)piperazin-1-yl)propan-2-ol], the concentration for half-maximal inhibition (IC50) in assay [1] (read-out: 5HT2A IC50) came out at 0.02 µM; in assay [2], 240 nM.
Taken in the same sequence, the figures for `O[C@H](COC1CCCCC1)CN1CCC2(CCN(c3ccccc3)C2)C1` (stereo partly drawn) [Example 345, (2S)-1-(cyclohexyloxy)-3-(7-phenyl-2,7-diazaspiro[4.4]nonan-2-yl)propan-2-ol] were 0.24 µM and 1900 nM.
In the case of `c1ccc2c(c1)CCC2CN1CCC2(CCc3cccnc3O2)CC1` (stereo not drawn) [Example 406, 1-((2,3-dihydro-1H-inden-1-yl)methyl)-3′,4′-dihydrospiro[piperidine-4,2′-pyrano[2,3-b]pyridine]], the half-maximal inhibitory concentration (IC50) in assay [1] (read-out: 5HT2A IC50) worked out at 0.04 µM. In addition, the inhibition at 1 µM in assay [2] was 7%.
As for `OC(COC1CCCCC1)CN1CCC2(CCN(c3ccccc3)CC2)C1` (stereo not drawn) [Example 350, 1-(cyclohexyloxy)-3-(8-phenyl-2,8-diazaspiro[4.5]decan-2-yl)propan-2-ol], the IC50 was determined as 0.61 µM in assay [1] (read-out: 5HT2A IC50) and 1680 nM in assay [2].
In the case of `COc1ccc(OC2CCN(CCN3CCc4ccccc4C3=O)CC2)cc1` [Example 202, 2-(2-(4-(4-methoxyphenoxy)piperidin-1-yl)ethyl)-3,4-dihydroisoquinolin-1(2H)-one], the IC50 in assay [1] (read-out: 5HT2A IC50) turned out to be 0.174 µM. Further, the inhibition at 10 µM in assay [2] was 62%.
